Measured values reported in ChEMBL document CHEMBL1201862, “PubChem BioAssay data set” (2004).
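Cells were grown in 96-well plates and exposed to each compound for 48 hours at five concentrations; endpoints were interpolated linearly between bracketing concentrations, or set to the highest concentration if not reached. The concentration for 50% growth inhibition is given as GI50.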 Activity calls are given as the source filed them. Rule as the data show it: active = GI50 up to about 1.1 µM and inactive = higher.

How the values were obtained:
Experiment in all cases: inhibition of tumour cell growth, NCI panel, 48 h
[1] = tested on: K562
[2] = tested on: OVCAR-3
[3] = tested on: SNB-75
[4] = tested on: RXF 393
[5] = tested on: DLD-1
[6] = tested on: SF-539
[7] = tested on: HT-29
[8] = tested on: IGROV-1
[9] = tested on: UO-31
[10] = tested on: OVCAR-4
[11] = tested on: SNB-19
[12] = tested on: ACHN
[13] = tested on: SF-295
[14] = tested on: 786-0
[15] = tested on: KM12
[16] = tested on: NCI-H460
[17] = tested on: A549
[18] = tested on: UACC-62

Measured: GI50

CCOP(=O)(OCC)C1CC(C)OC1=O (stereo unspecified)
inactive: [1] > 100 µM | [2] > 100 µM | [3] > 100 µM | [4] > 100 µM | [5] > 100 µM | [6] > 100 µM | [7] > 100 µM | [8] > 100 µM | [9] > 100 µM | [10] > 100 µM | [11] > 100 µM | [12] > 100 µM | [13] > 100 µM | [14] > 100 µM | [15] > 100 µM | [16] > 100 µM | [17] > 100 µM | [18] > 100 µM

O=c1[nH]c2ccc([N+](=O)[O-])cc2nc1/C(=N/Nc1ccccc1)C(O)c1ccco1 (stereo unspecified)
inactive: [1] 35.2 µM | [2] > 100 µM | [3] 36.3 µM | [4] 52.8 µM | [5] > 100 µM | [6] > 100 µM | [7] 66.8 µM | [8] 87.9 µM | [9] 44.2 µM | [10] 66.2 µM | [11] > 100 µM | [12] 33.9 µM | [13] 83.4 µM | [14] > 100 µM | [15] 33.6 µM | [16] > 100 µM | [17] 69.3 µM | [18] 32.2 µM
